The results in this text go back to US7250397B2, “Antiarrhythmic peptides” (Zealand Pharma A/S, priority 2000, dated 2007).

One experiment concerns human osteoblast. Briefly: Lucifer Yellow dye transfer in human osteoblasts. The settings on record: 10 minutes; after 48 hours hypoxia 3-6% O2 (7 cells before). It is filed as cell-based. The protocol: (§1) Human osteblast cells (hOB): Cells were isolated from human bone marrow obtained by puncture of the posterior iliac spine of healthy volunteers (aged 20-36): 10-15 ml marrow material was collected in 15 ml PBS+Ca,Mg (Life Technologies, Cat.No. 14040) with 100 U/ml Heparin (Sigma, Cat.No. H-3149). The mononuclear fraction of the marrow was isolated on a Lymphoprep gradient (Nycomed Pharma, Cat.No. 1001967), by centrifugation at 2200 rpm for 30 min. After harvesting, the mononuclear fraction was washed once with culture medium and centrifuged at 1800 rpm for 10 min. Subsequently cells were counted and plated in culture medium at 8×10^6 cells/100 mm dish. hOB medium (all reagents obtained from Life Technologies): MEM w/o Phenol Red w/Glutamax (Cat.No. 041-93013) supplemented with 10% heat inactivated fetal calf serum (Cat.No. 10106) and 0.1% Penicillin/Streptomycin (Cat.No. 15140). Medium was changed the following day and the cells were cultured at 37° C. in 5%CO2 with medium change every 7 days. […]
To assess the effect of the compound on direct cellular coupling, microinjection experiments were performed according to the method described above. […] After 30 seconds, the number of cells containing dye was assessed. […] Then cellular coupling was re-assessed by microinjecting LY, and at this point the dye was only passed to an average of 7 cells (n=10).

Experiment [1] relates to alkaline phosphatase (ALP) activity of human osteoblasts. Description: Alkaline phosphatase (ALP) assay in human osteoblasts. Type of experiment: cell-based. The settings on record: four days; 10^−13-10^−6 M; normal culture conditions. The protocol: as §1, with “days. After 3-4 weeks of culture the cells had reached 70% confluence.” for “days.”
• Day 1: Cells were plated in 96-well plates at a conc. of 8000 cells/well (hOB) or 3000 cells/well (ROS) in 200 μl normal culture medium. • Day 2: Medium was changed on the cells. • Day 4: (Day 3 for ROS): Cells were washed with 200 μl MEM, 0.1% BSA (Sigma, Cat.No. A-9418). […] Absorbance was measured using a plate reader at 405 nm. […]

The subject of experiment [2] is ventricular reentry arrhythmias. Description: Ventricular reentry arrhythmias in dogs after coronary artery occlusion. It is filed as in vivo, dog. Particulars: i.v. bolus and infusion after CAO; from the lowest dose. The method, then:
Three dogs were studied in the anesthetized, open chest state to facilitate electrode placement for mapping. α-chloralose was given as a bolus (200 mg/kg) and then a constant infusion at 8 mg/kg/hr (dissolved in polyethylene glycol, MW=200). The femoral vein and artery was cannulated for administration of fluid and drugs and for measurement of ascending aortic pressure, respectively.
The sinus node was clamped and the atrial appendage was paced with a programmable stimulator with constant current outputs at two times diastolic threshold. Pacing rate was ≧200 b/min to control heart rates. […] Endocardial Effective Refractory Period (ERP) was measured by the standard extrastimulus technique. Late ventricular diastolic threshold was measured during each intervention; the pacing current was four times threshold.
Test sites were chosen along the shaft of 16 pole needles (J. Kassell, Fayetteville, N.C.); each pole completely surrounds the needle shaft to prevent directionality of needle orientation from recording of adjacent Purkinje strands. Six bipolar electrograms (1 mm spacing) were recorded sequentially down the shaft of the needle by amplifying up to 1000 times, filtering from 3-1300 Hz and recording via oscilloscope during atrial pacing. Four intramural electrograms are recorded on each multipolar needle. […]

Entries after “also recorded” stand apart in the source; their conditions may differ.

“Ac-D-Tyr-D-Pro-D-4Hyp-Gly-D-Ala-Gly-NH2 [Compound 2]”: in the experiment on human osteoblast, the “dye transfer, number of cells” value was 9 cells. In addition, in experiment [1], the “ALP activity compared to untreated controls” value is recorded as “increased ALP activity at most of the concentrations tested; also recorded: stimulated ALP activity”. Further, in experiment [2], the “inducibility of reentry ventricular tachycardia (VT)” value was “no longer inducible; also recorded: completely blocked; also recorded: No VT was inducible”.
